From ChEMBL document CHEMBL5113495, “Discovery of novel orexin receptor antagonists using a 1,3,5-trioxazatriquinane bearing multiple effective residues (TriMER) library” (Eur J Med Chem, 2022) come the findings set out here.

For data set [1], the target named is T1, Orexin/Hypocretin receptor type 1 (Homo sapiens, UniProt O43613).
T1 sequence (O43613 whole entry): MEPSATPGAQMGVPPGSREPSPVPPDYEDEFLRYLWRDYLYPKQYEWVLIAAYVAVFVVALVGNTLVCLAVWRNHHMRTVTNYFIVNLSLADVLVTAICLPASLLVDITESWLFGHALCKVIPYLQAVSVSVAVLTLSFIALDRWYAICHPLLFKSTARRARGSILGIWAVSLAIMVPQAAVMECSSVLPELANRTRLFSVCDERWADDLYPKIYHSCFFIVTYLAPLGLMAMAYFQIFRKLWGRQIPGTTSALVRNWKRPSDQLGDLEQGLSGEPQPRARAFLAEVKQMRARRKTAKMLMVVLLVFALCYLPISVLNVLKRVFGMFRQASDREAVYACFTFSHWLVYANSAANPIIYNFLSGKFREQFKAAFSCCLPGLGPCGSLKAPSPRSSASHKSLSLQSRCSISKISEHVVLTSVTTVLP
Briefly: Antagonist activity at human OX1R expressed in CHO-K1 cells assessed as inhibition of orexin-A-induced increase in calcium mobilization preincubated for 15 mins followed orexin-A stimulation by Fura-2-AM dye based fluorescence assay. The class given is functional, cell-based.

The next data set deals with T2, Orexin receptor type 2 (Homo sapiens, UniProt O43614).
T2 sequence (O43614 whole entry): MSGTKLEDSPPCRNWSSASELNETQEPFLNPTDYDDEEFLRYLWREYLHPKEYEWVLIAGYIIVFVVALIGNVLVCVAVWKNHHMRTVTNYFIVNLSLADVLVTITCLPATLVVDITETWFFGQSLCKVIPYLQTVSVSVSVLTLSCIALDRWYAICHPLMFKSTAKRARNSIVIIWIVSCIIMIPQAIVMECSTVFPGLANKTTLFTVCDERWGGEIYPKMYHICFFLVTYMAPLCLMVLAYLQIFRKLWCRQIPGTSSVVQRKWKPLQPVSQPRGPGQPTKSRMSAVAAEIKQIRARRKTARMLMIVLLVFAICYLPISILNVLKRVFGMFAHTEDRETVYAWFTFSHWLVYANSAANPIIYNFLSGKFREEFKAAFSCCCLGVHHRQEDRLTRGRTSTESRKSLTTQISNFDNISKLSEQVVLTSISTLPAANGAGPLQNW
Briefly: Antagonist activity at human OX2R expressed in CHO-K1 cells assessed as inhibition of orexin-A-induced increase in calcium mobilization preincubated for 15 mins followed orexin-A stimulation by Fura-2-AM dye based fluorescence assay. The class given is functional, cell-based.

Data set [2] has as its system Mus musculus. Briefly: Sleep inducing activity in C57BL/6J mouse assessed as increase in total time of NREM sleep during dark phase at 10 mg/kg, ip measured at 12 to 18 hrs by EEG/EMG analysis. The class given is functional, organism-based. The following applies: time 12-18 hrs.
A short description of data set [3]: Apparent permeability across apical to basolateral side in human Caco-2 cells at pH 7.4 in the presence of 1% BSA. The following applies: Caco-2, pH 7.4. The class given is ADME, cell-based.
Data set [4] can be described thus: Metabolic stability in pooled human liver microsomes assessed as intrinsic clearance […] preincubated for 5 mins followed by NADPH addition and measured upto 60 mins by HPLC-MS/MS analysis. Conditions: time < 65 min, read-out: CLH. The class given is ADME, Microsome.
The subject of data set [5] is Mus musculus. Briefly: Sleep inducing activity in C57BL/6J mouse assessed as decrease in total time of wakefulness during dark phase at 10 mg/kg, ip measured at 12 to 18 hrs by EEG/EMG analysis. The class given is functional, organism-based. The following applies: time 12-18 hrs.
A short description of data set [6]: Drug concentration in C57BL/6J mouse brain at 10 mg/kg, ip measured after 0.5 hrs by LC-MS/MS analysis. The class given is ADME, organism-based. Conditions: in vivo.
A short description of data set [7]: Metabolic stability in pooled human liver microsomes assessed as half-life […] preincubated for 5 mins followed by NADPH addition and measured upto 60 mins by HPLC-MS/MS analysis. The following applies: time < 65 min. The class given is ADME, Microsome.
A short description of data set [8]: Apparent permeability across apical to basolateral side in human Caco-2 cells at pH 7.4. Conditions: Caco-2, pH 7.4. The class given is ADME, cell-based.
Data set [9] is described as follows: Passive apparent permeability in MDCK cells. The class given is ADME, cell-based, Canis lupus familiaris. Conditions: dog.
For data set [10], the system named is Mus musculus. Briefly: Effect on locomotor activity in ip dosed ICR mouse assessed as suppression of orexin-induced enhancement of locomotor activity pretreated with compound for 30 mins followed by orexin stimulation by infrared light beam-braking system locomotor recording system. The class given is functional, organism-based. Conditions: dose 3-10 mg/kg, DDE = dose-dependent effect.

The structures appear in SMILES notation. Active and inactive are the calls of the source. The rule behind the calls is not given here. Bounds are passed on as bounds.

Take `CC(C)(C)OC(=O)Nc1cccc([C@]2(C)O[C@H]3CO[C@@H]4N3[C@H]2O[C@@]4(C)c2cccc(NC(=O)OC(C)(C)C)c2)c1`: the Ki in data set [1] is 34.2 nM; at Orexin receptor type 2, 180 nM.
In the case of `COc1cccc(C(=O)Nc2cccc([C@@]3(C)O[C@H]4CO[C@@H]5N4[C@H]3O[C@]5(C)c3cccc(NC(=O)c4ccccc4OC)c3)c2)c1`, in data set [1], the Ki is 32.8 nM.
On the same count and under the same terms, as for `COc1ccc(C(=O)Nc2cccc([C@]3(C)O[C@@H]4CO[C@H]5N4[C@@H]3O[C@@]5(C)c3cccc(NC(=O)c4ccc(OC)cc4)c3)c2)cc1`, the figure is 2.17 nM.
As to `CN(C)c1ccc(C(=O)Nc2cccc([C@@]3(C)O[C@H]4CO[C@@H]5N4[C@H]3O[C@]5(C)c3cccc(NC(=O)c4ccc(N(C)C)cc4)c3)c2)cc1`, the Ki in data set [1] was found to be 3.88 nM. In addition, the IC50 at Orexin receptor type 2 is over 10000 nM.
In the case of `COc1ccccc1C(=O)Nc1cccc([C@]2(C)O[C@@H]3N4[C@H](CO[C@H]42)O[C@@]3(C)c2cccc(NC(=O)c3ccccc3)c2)c1`, the Ki was found to be 18 nM in data set [1] and 56 nM at Orexin receptor type 2.
Regarding `CN(C)c1ccccc1C(=O)Nc1cccc([C@@]2(C)O[C@H]3CO[C@@H]4N3[C@H]2O[C@]4(C)c2cccc(NC(=O)c3ccccc3N(C)C)c2)c1`, the Ki in data set [1] is 634 nM. Besides, on Orexin receptor type 2, the IC50 was over 10000 nM.
`COc1cccc(C(=O)Nc2cccc([C@@]3(C)O[C@H]4CO[C@@H]5N4[C@H]3O[C@]5(C)c3cccc(NC(=O)c4cccc(OC)c4)c3)c2)c1`: the Ki in data set [1] was 2.86 nM. Further, the IC50 on Orexin receptor type 2 is over 10000 nM.
The like results for `C[C@]1(c2cccc(NC(=O)c3ccccn3)c2)O[C@H]2CO[C@@H]3N2[C@H]1O[C@]3(C)c1cccc(NC(=O)c2ccccn2)c1` were, in that order, 18.3 nM and over 10000 nM.
As for `CN(C)c1ccccc1C(=O)Nc1cccc([C@]2(C)O[C@H]3CO[C@@H]4N3[C@H]2O[C@@]4(C)c2cccc(NC(=O)c3ccccc3N(C)C)c2)c1`, the IC50 (in data set [1]; on Orexin receptor type 2) was over 10000 nM in each case.
Regarding `C[C@@]1(c2cccc(NC(=O)c3cccnc3)c2)O[C@H]2CO[C@@H]3N2[C@H]1O[C@@]3(C)c1cccc(NC(=O)c2cccnc2)c1`, the values for the Ki (in [1]; on Orexin receptor type 2) were 691 nM and 261 nM, respectively.
On to `C[C@]1(c2cccc(NC(=O)c3ccccc3)c2)O[C@H]2CO[C@@H]3N2[C@H]1O[C@]3(C)c1cccc(NC(=O)c2ccccc2)c1`, for which, in data set [1], the Ki turned out to be 25.4 nM. In addition, the IC50 on Orexin receptor type 2 was over 10000 nM.
Turning to `COc1ccc(C(=O)Nc2cccc(C3(C)OC4COC5N4C3OC5(C)c3cccc(NC(=O)c4ccc(OC)cc4)c3)c2)cc1` (mixture of isomers), the Ki in [1] amounted to 11.7 nM.
As to `CN(C)c1ccc(C(=O)Nc2cccc([C@]3(C)O[C@H]4CO[C@@H]5N4[C@H]3O[C@@]5(C)c3cccc(NC(=O)c4ccc(N(C)C)cc4)c3)c2)cc1`, the 50% inhibitory concentration (IC50) (in data set [1]; at Orexin receptor type 2) was over 10000 nM in each case.
As to `C[C@@]1(c2cccc(NS(=O)(=O)c3ccccc3)c2)O[C@H]2CO[C@@H]3N2[C@H]1O[C@]3(C)c1ccc(NS(=O)(=O)c2ccccc2)cc1`, the IC50 in data set [1] was over 10000 nM. Further, the Ki at Orexin receptor type 2 was 222 nM.
As for `COc1ccc(C(=O)Nc2cccc([C@]3(C)O[C@H]4CO[C@@H]5N4[C@H]3O[C@@]5(C)c3cccc(NC(=O)c4ccc(OC)cc4)c3)c2)cc1`, the outcome in the data set with Mus musculus [2] and with Mus musculus [5] was Active. Also, the Ki in [1] is 3.99 nM. Moreover, in data set [3], the Papp A→B came out at 1.4 ×10⁻⁶ cm/s. Besides, in data set [4], the microsomal CLint came to 184 µL/min/mg. The Ct in data set [6] was determined as 54.7 pmol/g. Also, the half-life in data set [7] came out at 38 min.
Turning to `C[C@@]1(c2cccc(NC(=O)c3ccccc3)c2)O[C@H]2CO[C@@H]3N2[C@H]1O[C@@]3(C)c1cccc(NC(=O)c2ccccc2)c1`, the Ki in [1] was determined as 23.4 nM; at Orexin receptor type 2 it was 15.1 nM.
Regarding `COc1ccc(C(=O)Nc2cccc([C@@]3(C)O[C@@H]4CO[C@H]5N4[C@@H]3O[C@]5(C)c3cccc(NC(=O)c4ccc(OC)cc4)c3)c2)cc1`, the Ki in data set [1] stood at 110 nM.
On the same count and under the same terms, in the case of `COc1ccc(C(=O)Nc2cccc(C3(C)OC4COC5N4C3OC5(C)c3cccc(NC(=O)c4ccc(OC)cc4)c3)c2)cc1` (racemic) it was 4.93 nM.
As for `COc1cccc(C(=O)Nc2cccc([C@]3(C)O[C@@H]4N5[C@H](CO[C@H]53)O[C@@]4(C)c3cccc(NC(=O)c4ccccc4)c3)c2)c1`, the Ki worked out at 7.66 nM in data set [1] and 5.38 nM on Orexin receptor type 2.
As to `C[C@]1(c2cccc(NC(=O)c3ccncc3)c2)O[C@H]2CO[C@@H]3N2[C@H]1O[C@]3(C)c1cccc(NC(=O)c2ccncc2)c1`, in [1], the Ki was determined as 104 nM. On Orexin receptor type 2, the IC50 was over 10000 nM.
`C[C@@]1(c2cccc(NC(=O)c3ccncc3)c2)O[C@H]2CO[C@@H]3N2[C@H]1O[C@@]3(C)c1cccc(NC(=O)c2ccncc2)c1`: in [1], the IC50 is over 10000 nM. Moreover, the Ki on Orexin receptor type 2 worked out at 179 nM.
On to `COc1ccc(C(=O)Nc2cccc([C@@]3(C)O[C@H]4CO[C@@H]5N4[C@H]3O[C@]5(C)c3cccc(NC(=O)c4ccc(OC)cc4)c3)c2)cc1`, for which the Ki in data set [1] came to 1.87 nM. Also, the Papp A→B in [8] is 11.9 ×10⁻⁶ cm/s. Also, the microsomal CLint in [4] came out at 183 µL/min/mg. Moreover, the Papp in [9] is over 10 ×10⁻⁶ cm/s. Also, the Ct in data set [6] is 33.9 pmol/g. In addition, the Activity result with Mus musculus [10] is “Dde”. The half-life in data set [7] stood at 39 min.
`CN(C)c1cccc(C(=O)Nc2cccc([C@]3(C)O[C@H]4CO[C@@H]5N4[C@H]3O[C@@]5(C)c3cccc(NC(=O)c4cccc(N(C)C)c4)c3)c2)c1`: the IC50 (in [1]; on Orexin receptor type 2) was over 10000 nM throughout.
With `C[C@]1(c2cccc(NC(=O)c3cccnc3)c2)O[C@H]2CO[C@@H]3N2[C@H]1O[C@]3(C)c1cccc(NC(=O)c2cccnc2)c1`, the Ki in [1] came out at 52 nM. The IC50 at Orexin receptor type 2 was over 10000 nM.
`CN(C)c1cccc([C@]2(C)O[C@H]3CO[C@@H]4N3[C@H]2O[C@@]4(C)c2cccc(N(C)C)c2)c1`: the IC50 in data set [1] is over 10000 nM. Besides, at Orexin receptor type 2, the Ki is 655 nM.
Consider `CN(C)c1cccc(C(=O)Nc2cccc([C@@]3(C)O[C@H]4CO[C@@H]5N4[C@H]3O[C@]5(C)c3cccc(NC(=O)c4cccc(N(C)C)c4)c3)c2)c1`, for which the Ki in data set [1] was 7.85 nM. Moreover, the IC50 on Orexin receptor type 2 is over 10000 nM.
`C[C@@]1(c2cccc(NC(=O)c3ccccn3)c2)O[C@H]2CO[C@@H]3N2[C@H]1O[C@@]3(C)c1cccc(NC(=O)c2ccccn2)c1`: the Ki came out at 14.9 nM in [1] and 69.6 nM at Orexin receptor type 2.
